Measurements taken from PMC7677376 (Cell Discovery, 2020).

Target: T1, MlaFEDB (Acinetobacter baumannii, UniProt A0A086HZU3)
T1 construct: gene ttg2A
Settings: 1 mM vanadate; traps ADP-vanadate at the MlaF ATP sites

T1 sequence (V5V9K5 entry or part of it): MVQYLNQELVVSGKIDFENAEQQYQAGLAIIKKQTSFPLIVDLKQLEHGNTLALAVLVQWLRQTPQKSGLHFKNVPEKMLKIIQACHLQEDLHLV
T1 sequence (V5V9F4 entry or part of it, further chain): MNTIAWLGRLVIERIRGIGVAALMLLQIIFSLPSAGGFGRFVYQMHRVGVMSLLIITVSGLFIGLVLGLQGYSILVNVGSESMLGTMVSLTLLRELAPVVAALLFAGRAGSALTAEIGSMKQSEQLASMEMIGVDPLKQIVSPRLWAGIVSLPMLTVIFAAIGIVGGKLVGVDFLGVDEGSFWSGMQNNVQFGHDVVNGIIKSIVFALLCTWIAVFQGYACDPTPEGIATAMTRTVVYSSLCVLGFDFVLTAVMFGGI
T1 sequence (A0A086HZU3 entry or part of it): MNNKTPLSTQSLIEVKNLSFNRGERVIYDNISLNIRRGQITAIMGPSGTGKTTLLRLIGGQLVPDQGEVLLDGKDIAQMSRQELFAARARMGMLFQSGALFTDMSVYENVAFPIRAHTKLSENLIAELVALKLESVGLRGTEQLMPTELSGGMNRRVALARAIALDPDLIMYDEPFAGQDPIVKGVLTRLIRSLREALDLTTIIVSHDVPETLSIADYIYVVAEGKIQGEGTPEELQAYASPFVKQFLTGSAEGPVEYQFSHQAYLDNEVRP
T1 sequence (V5V921 entry or part of it, further chain): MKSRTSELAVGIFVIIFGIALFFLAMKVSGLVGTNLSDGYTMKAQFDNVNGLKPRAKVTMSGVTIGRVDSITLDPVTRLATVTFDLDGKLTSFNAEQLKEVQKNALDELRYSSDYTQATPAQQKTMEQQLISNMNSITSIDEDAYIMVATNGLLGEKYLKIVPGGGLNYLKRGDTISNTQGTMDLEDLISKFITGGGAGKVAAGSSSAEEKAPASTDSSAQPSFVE

Compound: [O]=[V]([OH])([OH])[OH] [sodium ortho-vanadate]
- % inhibition at 1 mM: ~ 50%
